# Measurements as given in US11548894B2, “Benzamide or benzamine compounds useful as anticancer agents for the treatment of human cancers” (The Board of Regents of the University of Texas System, priority 2015, dated 2023).
# Counter-ions that a name gives are not always drawn.
# Test system: Mut6 cells (TD-NSC)
# Test: luminescence-based Celltiter-Glo cell viability assay (ATP levels) on Mut6 tumor derived neuronal stem cells
# Design: species or system mouse
# Details: ATP activity as measure of viability, 96 hours; Hydrochloride; read-out: EC50 (TD-NSC)
# Source text: A mouse colony with 100% incidence of GBM and with conditional knockout of p53, pTEN and NF1 genes (Mut6; glioblastoma) was used to isolate primary neuronal stem cells from GBM tumors cultured in 5% Oxygen and in serum free media with defined growth factors. Primary cells from multiple tumors were pooled for high throughput screening with controls against the University of Texas Southwestern (UTSW) compound file, which encompasses ˜200,000 synthetic compounds that represent a large chemical space from several commercial vendors, including 1200 marketed drugs from the Prestwick Chemical Library®, and 600 compounds that went to pre-clinical tests from the NIH library.
# A luminescence-based Celltiter-Glo® assay was performed to measure cell viability, using ATP levels as the readout. In brief, opaque-walled multiwell plates with Mut6 cells in culture medium (25 μl per well, 384-well plates) were prepared. Control wells containing medium without cells were prepared to obtain a value for background luminescence. Test compounds were added to experimental wells, and incubated according to culture protocol. The plate and its contents were incubated at 37° C., 5% […] for 96 hours. An ATP standard curve was generated immediately prior to adding the CellTiter-Glo® Reagent. A volume of CellTiter-Glo® Reagent equal to the volume of cell culture medium present in each well (25 μl of reagent to 25 μl of medium containing cells for a 384-well plate) was added. The contents were mixed for 2 minutes on an orbital shaker to induce cell lysis. The plate was allowed to incubate at room temperature for 10 minutes to stabilize the luminescent signal and luminescence recorded. (e.g. GloMax®, Lumistar, SPECTROstar, PHERAstar FS).
# Compound 4C12 served as initial lead compound for analog development and for additional studies. […] See Wager, T T et al, “Moving beyond rules: the development of a central nervous system multi-parameter-optimization (CNS MPO) approach to enable alignment of drug-like properties,” ACS Chem. Neurosci. 1(6): 435-49 (2010). IC50 curves for the analog compounds plotted as ATP activity (y axis, a measure of viability) vs. concentration (nM) (x-axis) are shown in FIG. 9.
row,EC50 [nM],Compound
1,59,"CCN(CC)CCNC(=O)c1ccc(Sc2ccc(F)cc2)c([N+](=O)[O-])c1 [DS-1-239, N-(2-(diethylamino)ethyl)-4-((4-fluorophenyl)thio)-3-nitrobenzamide Hydrochloride]"
2,44,"O=C(NCCN1CCOCC1)c1ccc(Sc2ccc(F)cc2)c([N+](=O)[O-])c1 [DS-1-241, 4-((4-fluorophenyl)thio)-N-(2-morpholinoethyl)-3-nitrobenzamide Hydrochloride]"

# Same assay, conditions: Mus musculus, 96 h, ATP activity as measure of viability, 96 hours; read-out: EC50 (TD-NSC)
row,Compound,EC50 [nM]
1,"CCN1CCCC1CNC(=O)c1ccc([S+]([O-])c2ccc(F)cc2)c([N+](=O)[O-])c1 (stereo not drawn) [DS-1-135, N-((1-ethylpyrrolidin-2-yl)methyl)-4-((4-fluorophenyl)sulfinyl)-3-nitrobenzamide]",> 1000
2,"CCN1CCCC1CNC(=O)c1ccc(Sc2ccc(C(F)(F)F)cc2)c([N+](=O)[O-])c1 (stereo not drawn) [DS-1-065, N-((1-ethylpyrrolidin-2-yl)methyl)-3-nitro-4-((4-(trifluoromethyl)phenyl)thio)benzamide]",86
3,"CCN1CCCC1CNC(=O)c1ccc(Sc2ccc(F)cc2)cc1 (stereo not drawn) [DS-1-117, N-((1-ethylpyrrolidin-2-yl)methyl)-4-((4-fluorophenyl)thio)benzamide]",394
4,"CCN1CCCC1CNC(=O)c1ccc(Sc2cccc(Cl)c2)c([N+](=O)[O-])c1 (stereo not drawn) [DS-1-295, 4-((3-chlorophenyl)thio)-N-((1-ethylpyrrolidin-2-yl)methyl)-3-nitrobenzamide]",70
5,"CCN1CCCC1CNC(=O)c1ccc(Sc2cccc3cccnc23)c([N+](=O)[O-])c1 (stereo not drawn) [DS-1-269, N-((1-ethylpyrrolidin-2-yl)methyl)-3-nitro-4-(quinolin-8-ylthio)benzamide]",535
6,"O=C(NCC1CCCO1)c1ccc(Sc2ccc(F)cc2)c([N+](=O)[O-])c1 (stereo not drawn) [DS-1-275, 4-((4-fluorophenyl)thio)-3-nitro-N-((tetrahydrofuran-2-yl)methyl)benzamide]",> 1000
7,"CCN1CCCC1CNC(=O)c1ccc(Sc2ccc(F)cc2)c(C(N)=O)c1 (stereo not drawn) [DS-1-231-M, N^1-((1-ethylpyrrolidin-2-yl)methyl)-4-((4-fluorophenyl)thio)isophthalamide]",> 1000
8,"CCN1CCCC1CNC(=O)c1ccc(-c2cccc(F)c2)c([N+](=O)[O-])c1 (stereo not drawn) [DS-1-183, N-((1-ethylpyrrolidin-2-yl)methyl)-3′-fluoro-2-nitro-[1,1′-biphenyl]-4-carboxamide]",> 1000
9,"CN1CCN(CCNC(=O)c2ccc(Sc3ccc(F)cc3)c([N+](=O)[O-])c2)CC1 [DS-2-121, 4-((4-fluorophenyl)thio)-N-(2-(4-methylpiperazin-1-yl)ethyl)-3-nitrobenzamide]",287
10,"C#CCN(CC)CCNC(=O)c1ccc(Sc2ccc(N=[N+]=[N-])cc2)c([N+](=O)[O-])c1 [DS-2-091, 4-((4-azidophenyl)thio)-N-(2-(ethyl(prop-2-yn-1-yl)amino)ethyl)-3-nitrobenzamide]",> 1000
11,"C#CCN(CC)CCNC(=O)c1ccc(C(=O)c2ccc(F)cc2)c([N+](=O)[O-])c1 [DS-2-107, N-(2-(ethyl(prop-2-yn-1-yl)amino)ethyl)-4-(4-fluorobenzoyl)-3-nitrobenzamide]",> 1000
12,"CCN1CCCC1CNC(=O)c1ccc([N+](=O)[O-])c(Sc2ccc(F)cc2)c1 (stereo not drawn) [DS-2-115, N-((1-ethylpyrrolidin-2-yl)methyl)-3-((4-fluorophenyl)thio)-4-nitrobenzamide]",60
13,"CCN1CCCC1CNC(=O)c1ccc(C(O)c2ccc(F)cc2)c([N+](=O)[O-])c1 (stereo not drawn) [DS-2-051, N-((1-ethylpyrrolidin-2-yl)methyl)-4-((4-fluorophenyl)(hydroxy)methyl)-3-nitrobenzamide]",564
14,CN(CCNC(=O)CCCC[C@@H]1SC[C@@H]2NC(=O)N[C@@H]21)CCNC(=O)c1ccc(Sc2ccc(F)cc2)c([N+](=O)[O-])c1 [DS-1-205],40000
15,"O=C(NCCN1CCCCC1)c1ccc(Sc2ccc(F)cc2)c([N+](=O)[O-])c1 [DS-2-125, 4-((4-fluorophenyl)thio)-3-nitro-N-(2-(piperidin-1-yl)ethyl)benzamide]",50
16,"CCN1CCCC1CNC(=O)c1ccc(Sc2ccc(NC(C)=O)cc2)c([N+](=O)[O-])c1 (stereo not drawn) [DS-1-077, 4-((4-acetamidophenyl)thio)-N-((1-ethylpyrrolidin-2-yl)methyl)-3-nitrobenzamide]",> 1000
17,"O=C(NCCN1CCOCC1)c1ccc(Sc2ccc(F)cc2)c([N+](=O)[O-])c1 [DS-1-089, 4-((4-fluorophenyl)thio)-N-(2-morpholinoethyl)-3-nitrobenzamide]",25
18,"CCN1CCCC1CNC(=O)c1ccc(Sc2ccc(O)cc2)c([N+](=O)[O-])c1 (stereo not drawn) [DS-1-217, N-((1-ethylpyrrolidin-2-yl)methyl)-4-((4-hydroxyphenyl)thio)-3-nitrobenzamide]",485
19,"CCN1CCCC1CNC(=O)c1ccc(Sc2ccc(C(=O)O)cc2)c([N+](=O)[O-])c1 (stereo not drawn) [DS-1-179, 4-((4-(((1-ethylpyrrolidin-2-yl)methyl)carbamoyl)-2-nitrophenyl)thio)benzoic Acid Hydrochloride]",> 1000
20,"CCN1CCCC1CNC(=O)c1ccc(Nc2ccc(F)cc2)c([N+](=O)[O-])c1 (stereo not drawn) [DS-1-105, N-((1-ethylpyrrolidin-2-yl)methyl)-4-((4-fluorophenyl)amino)-3-nitrobenzamide]",255
21,"CCN1CCCC1CNC(=O)c1ccc(-c2ccc(F)cc2)c([N+](=O)[O-])c1 (stereo not drawn) [DS-1-181, N-((1-ethylpyrrolidin-2-yl)methyl)-4′-fluoro-2-nitro-[1,1′-biphenyl]-4-carboxamide]",> 1000
22,"CCN1CCCC1CNC(=O)c1ccc(C(=O)c2ccc(F)cc2)c([N+](=O)[O-])c1 (stereo not drawn) [DS-2-057, N-((1-ethylpyrrolidin-2-yl)methyl)-4-(4-fluorobenzoyl)-3-nitrobenzamide]",233
23,"CCN1CCCC1CNC(=O)c1ccc(NS(=O)(=O)c2ccc(F)cc2)c([N+](=O)[O-])c1 (stereo not drawn) [DS-1-213, N-((1-ethylpyrrolidin-2-yl)methyl)-4-(4-fluorophenylsulfonamido)-3-nitrobenzamide]",> 1000

# Other lines, results leading:
row,EC50 [nM],Compound
1,141,"O=C(NCCN1CCNCC1)c1ccc(Sc2ccc(F)cc2)c([N+](=O)[O-])c1 [DS-2-129, 4-((4-fluorophenyl)thio)-3-nitro-N-(2-(piperazin-1-yl)ethyl)benzamide]"
2,510,"CCN1CCCC1CNC(=O)c1ccc(Sc2cc(Cl)cc(Cl)c2)c([N+](=O)[O-])c1 (stereo not drawn) [JCH-124, 4-((3,5-dichlorophenyl)thio)-N-((1-ethylpyrrolidin-2-yl)methyl)-3-nitrobenzamide]"
3,239,"C#CCN(CC)CCNC(=O)c1ccc(Sc2ccc(F)cc2)c(N=[N+]=[N-])c1 [ww3-77, 3-azido-N-(2-(ethyl(prop-2-yn-1-yl)amino)ethyl)-4-((4-fluorophenyl)thio)benzamide]"
4,185,"CCN1CCCC1CNC(=O)c1ccc(Sc2cccc(OC)c2)c([N+](=O)[O-])c1 (stereo not drawn) [JCH-146, N-((1-ethylpyrrolidin-2-yl)methyl)-4-((3-methoxyphenyl)thio)-3-nitrobenzamide]"
5,119,"CCN1CCCC1CNC(=O)c1ccc(Sc2ccccc2OC)c([N+](=O)[O-])c1 (stereo not drawn) [JCH-117, N-((1-ethylpyrrolidin-2-yl)methyl)-4-((2-methoxyphenyl)thio)-3-nitrobenzamide]"
6,154,"CCN1CCCC1CNC(=O)c1ccc(Sc2ccccc2CO)c([N+](=O)[O-])c1 (stereo not drawn) [JCH-149, N-((1-ethylpyrrolidin-2-yl)methyl)-4-((2-(hydroxymethyl)phenyl)thio)-3-nitrobenzamide]"
7,57,"CCN(CCO)CCNC(=O)c1ccc(Sc2ccc(F)cc2)c([N+](=O)[O-])c1 [ww3-62, N-(2-(ethyl(2-hydroxyethyl)amino)ethyl)-4-((4-fluorophenyl)thio)-3-nitrobenzamide]"
8,63,"CCN1CCCC1CNC(=O)c1ccc(Sc2ccc(F)cc2)c(N=[N+]=[N-])c1 (stereo not drawn) [ww3-57, 3-azido-N-((1-ethylpyrrolidin-2-yl)methyl)-4-((4-fluorophenyl)thio)benzamide]"
9,531,"C#CCN(CC1CCCN1CC)C(=O)c1ccc(Sc2ccc(F)cc2)c([N+](=O)[O-])c1 (stereo not drawn) [ww2-292, N-((1-ethylpyrrolidin-2-yl)methyl)-4-((4-fluorophenyl)thio)-3-nitro-N-(prop-2-yn-1-yl)benzamide]"
10,68,"CCN1CCCC1CNC(=O)c1ccc(Sc2ccc(Cl)cc2Cl)c([N+](=O)[O-])c1 (stereo not drawn) [JCH-120, 4-((2,4-dichlorophenyl)thio)-N-((1-ethylpyrrolidin-2-yl)methyl)-3-nitrobenzamide]"
11,78,"CCN1CCCC1CNC(=O)c1ccc(Sc2ccccc2C)c([N+](=O)[O-])c1 (stereo not drawn) [JCH-114, N-((1-ethylpyrrolidin-2-yl)methyl)-3-nitro-4-(o-tolylthio)benzamide]"
